The source of these data is publication PMC12610274, “Identification of Marrubiin as a Cathepsin C Inhibitor for Treating Rheumatoid Arthritis” (Molecules, 2025).

The target in one assay is T1, CTSB (Homo sapiens, UniProt P07858).
T1 construct: purchased R&D Systems
The assay can be described thus: Human recombinant cathepsins isolated enzyme assay, CTSB. Format: biochemical. The following applies: read-out: CTSB Enz (IC50: μM). The text has this: The protocol for evaluating the inhibitory potency of compounds against other cathepsins referred to the CTSC activity assay. Recombinant human CTSB, CTSL, CTSS and CTSK for testing were also purchased from R&D Systems Biotechnology Company. Recombinant human Cat G, NE, and PR3 For testing were purchased from MedChemExpress. A multi-functional microplate reader was used to measure the absorption of Z-Leu-Arg-AMC at excitation/emission wavelengths of 380/460 nm to assess the activity changes of CTSB and CTSL, while the absorption of MCA-Arg-Pro-Lys-Pro-Val-Glu-NVAL-Trp-Arg-Lys(DNP)-NH2 at 320/405 nm was measured to evaluate the activity changes of CTSS and CTSK. Different assay buffers were prepared for diluting samples and measuring the activities of specific NSPs: a buffer containing 50 mM Tris and 750 mM NaCl (pH 7.4) was used for NE and PR3; a buffer containing 50 mM Tris, 750 mM NaCl, 5 mM EDTA (pH 7.4) was used for Cat G; and a buffer containing 25 mM MES, 50 mM NaCl, 5 mM DTT (pH 6.0) was used for CTSC. Synthetic substrates were employed to assess the activities of NSPs and CTSC: H-Gly-Arg-AMC for CTSC, N-MeSuc-Ala-Ala-Pro-Val-pNA for NE, aminobenzoyl-Val-Ala-Asp-Cys-Ala-Asp-Gln-ethylenediamine 2,4-dinitrophenyl for PR3, and N-Suc-Ala-Ala-Pro-Phe-pNA for Cat G. Each group of tests was independently repeated at least 3 times, and IC50 values were calculated using SPSS 10.0.

For assay [1], the system named is NE. The assay is described as follows: NE activity in blood and bone marrow of mice. Format: in vivo, C57BL/6 mice. The following applies: 30 mg/kg daily gavage, 7 days. The procedure:
(§1) A total of 25 C57BL/6 mice (6–8 weeks old, weighing approximately 20 g, with equal numbers of males and females) were randomly divided into five groups. Mice in the compound-treated groups were orally administered the compound once daily at doses of 0.3, 3, and 30 mg/kg for 7 consecutive days. […] Mice in the normal group were given an equal volume of normal saline at the same time points. The body weight, death rate, and behavior were observed and recorded daily for one week. After 7 days, bone marrow and blood samples were collected from the mice and lysed using 8% Triton X-100 buffer. The lysates were stored at −20 °C until testing. The activity assays for CTSC and NSPs were performed as described above. The mice were anesthetized and the tissues were taken for H&E staining.

Another assay relates to PR3. The assay can be described thus: PR3 activity in blood and bone marrow of mice. The following applies: 30 mg/kg daily gavage, 7 days. Format: in vivo, C57BL/6 mice. The procedure:
as §1

The next assay deals with T2, CTSC (Rattus norvegicus, UniProt P80067).
T2 construct: from tissue; host or cells: serum of Sprague-Dawley rats (AIA model)
T2 sequence (P80067 25-462): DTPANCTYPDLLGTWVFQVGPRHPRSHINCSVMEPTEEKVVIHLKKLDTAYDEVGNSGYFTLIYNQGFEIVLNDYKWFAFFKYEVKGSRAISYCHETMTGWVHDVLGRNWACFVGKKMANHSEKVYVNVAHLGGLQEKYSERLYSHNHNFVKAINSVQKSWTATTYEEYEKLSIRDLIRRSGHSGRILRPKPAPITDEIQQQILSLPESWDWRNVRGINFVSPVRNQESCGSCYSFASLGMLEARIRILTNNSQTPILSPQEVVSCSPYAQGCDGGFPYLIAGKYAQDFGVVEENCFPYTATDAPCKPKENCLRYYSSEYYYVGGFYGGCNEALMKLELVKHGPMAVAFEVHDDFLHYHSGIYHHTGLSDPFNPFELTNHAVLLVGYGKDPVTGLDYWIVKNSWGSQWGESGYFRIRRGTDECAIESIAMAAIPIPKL
The assay can be described thus: AIA model, serum CTSC activity. Format: in vivo, Sprague-Dawley rats. The following applies: high dose 60 mg/kg gavage, 15 days. The procedure:
(§2) Thirty 4-week-old male Sprague-Dawley rats (weighing 120–130 g) were randomly divided into 6 groups (5 rats per group) after 1 week of adaptive feeding, namely the normal group, model group, low-dose experimental group (15 mg/kg), medium-dose experimental group (30 mg/kg), high-dose experimental group (60 mg/kg), and positive control group (30 mg/kg). Starting from Day 0 of the experiment, rats in the administration groups and model group were injected intradermally with 0.1 mL of CFA into the left hind paw to induce AIA, while rats in the normal group were injected intradermally with an equal volume (0.1 mL) of normal saline as a control. After 13 consecutive days of feeding, rats treated with CFA successfully developed typical AIA symptoms. […] During the experiment, the body weight, mental state, activity ability, hair color changes, and paw appearance changes of the rats were observed and recorded daily. In addition, on Day 0 of the experiment (baseline period), the basic paw volume of all rats was accurately measured using a plethysmometer, which served as a reference standard for subsequent evaluation of inflammation severity. From Day 13 to Day 28 of the experiment, the paw volume of the rats was measured repeatedly every 3 days. The degree of paw swelling was quantified by calculating the change in paw volume relative to the baseline. […] The cytokine levels in serum were measured. […]

For assay [2], the system named is NE. The assay can be described thus: AIA model, serum NE activity. Format: in vivo, Sprague-Dawley rats. The following applies: rat AIA, high dose 60 mg/kg gavage, 15 days. As to the method: as §2

As to `C[C@@H]1C[C@H]2OC(=O)[C@@]3(C)CCC[C@@](C)([C@@H]23)[C@@]1(O)CCc1ccoc1` [Marrubiin, marrubiin], the IC50 on CTSB turned out to be 9.8 ± 1.1 µM. The figures for the “remaining activity rate of NE” value in the assay on NE [1] (blood) and in the assay on NE [1] (bone marrow) were ~9.9% and ~20.9%, respectively. Besides, the “remaining activity rate of PR3” value in the assay with PR3 (blood) is ~13.6%; with PR3 (bone marrow) it was ~25.8%. Besides, the “serum CTSC activity, % of control group” value at CTSC is reported as “approximately 58%”. Moreover, the “serum NE activity, % of control group” value with NE [2] is ~47%.

By IC50 is commonly meant the concentration that inhibits the measured activity by half.
